Patent publication US20170112564A1, “METHODS AND MATERIALS FOR TREATING HYPERTENSION” (Mayo Foundation for Medical Education and Research, priority 2014, published 2017)

How the values were obtained:
[1] = test system: young and older postmenopausal women; test: Ganglionic (autonomic) blockade with trimethaphan camsylate in young and older postmenopausal women: blood pressure and muscle sympathetic nerve activity; assay type: in vivo, humans; details: during trimethaphan
From the text: FIG. 1 is a graph plotting muscle sympathetic nerve activity (MSNA; bursts/min) as measured using a microneurography technique for 24 humans. The dose indicates the amount of trimethaphan in mg/min it took to abolish the sympathetic nerve bursts. The MSNA bursts per minute is the amount of sympathetic bursts that occurred at baseline, prior to drug infusion.
FIG. 2 is a graph plotting the same dose of trimethaphan in mg/min compared to the difference in mean arterial pressure (MAP) between baseline and at the final trimethaphan dose.
The effect of ganglionic blockade on arterial blood pressure and how this relates to baseline muscle sympathetic nerve activity in 12 young (25±1 years) and 12 older postmenopausal (61±2 years) women were examined. The women were studied before and during autonomic blockade using trimethaphan camsylate. At baseline, muscle sympathetic nerve activity burst frequency and burst incidence were higher in the older women (33±3 versus 15±1 bursts/min; 57±5 versus 25±2 bursts/100 heartbeats, respectively; P<0.05). Muscle sympathetic nerve activity bursts were abolished by trimethaphan within minutes (e.g., between about 6 and about 35 minutes). […] Baseline muscle sympathetic nerve activity was associated with the decrease in mean arterial pressure during trimethaphan (r=−0.74; P<0.05). See, also, Barnes et al., Hypertension, 63:303-308 (2014).

healthy humans = test: Brief escalating doses of trimethaphan camsylate with beat-to-beat arterial pressure to distinguish high and low sympathetic activity individuals; assay type: in vivo; details: 24 healthy humans, infusion 1-4 mg/minute for 5-10 minutes
Protocol: Both normal human subjects and patients with diseases such as resistant hypertension can have very wide ranges of baseline sympathetic activity. The following was developed to distinguish those individuals with high levels of baseline sympathetic activity from individuals with lower levels of baseline sympathetic activity. Trimethaphan camsylate, a ganglionic blocking drug, was administered (e.g., by infusion) at 1-4 mg/minute for 5-10 minutes to 24 healthy humans, while non-invasive beat-to-beat measurements of arterial pressure were made. […] The relationship between the fall in blood pressure and baseline sympathetic activity in a group of about 20-30 healthy women ranging in age from their early 20's to their later 60's was determined (FIGS. 1 and 2). Similar data were obtained using healthy men. […] Those individuals with an elevated level of sympathetic activity responsive to a ganglionic blocking drug (e.g., a reduction in the number of bursts per minute that is greater than 10 burst per minute) can be optimal candidates for sympatholytic therapy.

[2] = older postmenopausal women (61±2 years, n=12)

## O=C1N(Cc2ccccc2)C2C[S+]3CCCC3C2N1Cc1ccccc1 (stereo not drawn) [trimethaphan, trimethaphan camsylate]
[1]; 12 young and 12 older postmenopausal women
  Muscle sympathetic nerve activity bursts: abolished
[1]; [2]
  decrease in mean arterial pressure: −29±2 mm Hg
  decrease in total peripheral resistance: −10±1 mm Hg/L per minute
[1]; young women (25±1 years, n=12)
  decrease in mean arterial pressure: −9±2 mm Hg
  decrease in total peripheral resistance: −5±1 mm Hg/L per minute
Healthy humans
  fall in blood pressure: directly related to baseline sympathetic activity
